Measured values as given in the supplement of paper PMC10307832.

Key:
Assay in all cases: relative viability (nuclei count vs DMSO), 5 days (fraction); higher = more cells survive
[1] = compound: COc1cc2nccc(Oc3ccc(NC(=O)C4(C(=O)Nc5ccc(F)cc5)CC4)cc3)c2cc1OC [Cabozantinib] + Nc1nc2[nH]cc(CCc3ccc(C(=O)N[C@@H](CCC(=O)O)C(=O)O)cc3)c2c(=O)[nH]1 [Pemetrexed] (partner 0.2 µM)
How it was run: (§1)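 A single step with final 0.05% Triton X-100, 1% formaldehyde and 1 ug/ml Hoechst fixed the cells and stained nuclei 5 days after treatment. Lung cancer cell lines in 1536-well plates had been treated by pin tool the day after seeding with one drug alone or a fixed anchor-drug dose plus five library-drug doses (not always all listed) in √10 steps, and nuclei were counted on 4× images. Relative viability is the ratio of nuclei in treated wells to nuclei in vehicle wells, taken as the median of duplicate plates.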

[2] = compound: C1=CC(=CC=C1NC(=S)NNC2=C(C=C(C=C2[N+](=O)[O-])C(F)(F)F)[N+](=O)[O-])F [Kobe2602] + Cc1nc(Nc2ncc(C(=O)Nc3c(C)cccc3Cl)s2)cc(N2CCN(CCO)CC2)n1 [Dasatinib] (partner 0.075 µM)
How it was run: as §1

[3] = compound: COc1cc2nccc(Oc3ccc(NC(=O)C4(C(=O)Nc5ccc(F)cc5)CC4)cc3)c2cc1OC [Cabozantinib] + CC1(C)CCC(c2ccc(Cl)cc2)=C(CN2CCN(c3ccc(C(=O)NS(=O)(=O)c4ccc(N[C@H](CCN5CCOCC5)CSc5ccccc5)c(S(=O)(=O)C(F)(F)F)c4)cc3)CC2)C1 [Navitoclax] (partner 0.5 µM)
How it was run: as §1

[4] = compound: COc1cc2nccc(Oc3ccc(NC(=O)C4(C(=O)Nc5ccc(F)cc5)CC4)cc3)c2cc1OC [Cabozantinib] + CC(=O)c1c(C)c2cnc(Nc3ccc(N4CCNCC4)cn3)nc2n(C2CCCC2)c1=O [Palbociclib] (partner 0.5 µM)
How it was run: as §1

| Cell Line | relative viability ([1]; first compound 0.02 µM) | relative viability ([1]; first compound 0.06325 µM) | relative viability ([1]; first compound 0.2 µM) | relative viability ([1]; first compound 0.6325 µM) | relative viability ([1]; first compound 2 µM) | relative viability ([2]; first compound 0.2 µM) | relative viability ([2]; first compound 0.6325 µM) | relative viability ([2]; first compound 2 µM) | relative viability ([2]; first compound 6.325 µM) | relative viability ([2]; first compound 20 µM) | relative viability ([3]; first compound 0.02 µM) | relative viability ([3]; first compound 0.06325 µM) | relative viability ([3]; first compound 0.2 µM) | relative viability ([3]; first compound 0.6325 µM) | relative viability ([3]; first compound 2 µM) | relative viability ([4]; first compound 0.02 µM) | relative viability ([4]; first compound 0.06325 µM) | relative viability ([4]; first compound 0.2 µM) | relative viability ([4]; first compound 0.6325 µM) | relative viability ([4]; first compound 2 µM) |
| --- | --- | --- | --- | --- | --- | --- | --- | --- | --- | --- | --- | --- | --- | --- | --- | --- | --- | --- | --- | --- |
| NCI-H1915 | 0.532 | 0.51 | 0.507 | 0.505 | 0.459 | 0.336 | 0.338 | 0.289 | 0.318 | 0.341 | 0.778 | 0.823 | 0.801 | 0.732 | 0.769 | 0.584 | 0.57 | 0.518 | 0.506 | 0.55 |
| NCI-H1944 | 0.601 | 0.645 | 0.631 | 0.637 | 0.696 | 0.255 | 0.223 | 0.233 | 0.213 | 0.245 |  | 1.08 | 0.972 | 0.969 | 0.921 | 0.357 | 0.315 | 0.317 | 0.299 | 0.349 |
| NCI-H1975 | 0.318 | 0.273 | 0.288 | 0.263 | 0.289 | 0.31 | 0.371 | 0.334 | 0.302 | 0.23 | 1.25 | 1.09 | 1.22 | 1.01 | 1.05 | 0.533 | 0.777 | 0.647 | 0.418 | 0.557 |
| NCI-H1993 | 0.486 | 0.507 | 0.484 | 0.561 | 0.662 | 0.575 | 0.501 | 0.544 | 0.532 | 0.607 | 0.934 | 0.901 | 0.857 | 0.851 | 0.991 | 0.661 | 0.537 | 0.461 | 0.571 | 0.437 |
| NCI-H2009 | 1.08 | 1.07 | 1.02 | 1 | 1.08 | 0.282 | 0.368 | 0.332 | 0.336 | 0.312 | 1.25 | 1.19 | 1.21 | 1.18 | 1.2 | 0.209 | 0.25 | 0.269 | 0.277 | 0.141 |
| NCI-H2023 | 0.199 | 0.272 | 0.175 | 0.23 | 0.146 | 0.532 | 0.583 | 0.547 | 0.484 | 0.394 | 1.07 | 1.05 | 0.931 | 0.872 | 0.691 | 0.386 | 0.321 | 0.271 | 0.247 | 0.199 |
| NCI-H2085 | 0.9 | 0.974 | 0.737 | 0.866 | 0.744 | 0.262 | 0.261 | 0.24 | 0.238 | 0.23 | 1.16 | 1.17 | 1.15 | 1.21 | 1.06 | 0.519 | 0.469 | 0.524 | 0.476 | 0.498 |
| NCI-H2087 | 0.612 | 0.711 | 0.614 | 0.752 | 0.665 | 0.932 | 0.892 | 0.747 | 0.844 | 0.924 | 1.03 | 1.1 | 1.06 | 0.985 | 0.981 | 0.187 | 0.302 | 0.273 | 0.249 | 0.253 |
